# Measured values: US20260315434A1, “USE OF GUAIACOL SESQUITERPENE LACTONE DERIVATIVES” (NANJING UNIVERSITY OF CHINESE MEDICINE, priority 2023, published 2026)
# Columns and labels:
# [1] = biological target: farnesyltransferase (FTase); conditions: cited from earlier work
# heart failure = conditions: human, in vivo; cited from earlier work
# [2] = 8 h; cited from earlier work
# MDSCs = assay: Inhibition of MDSC chemotaxis (Transwell, tumor-conditioned medium); assay type: cell-based, mouse; conditions: Mus musculus, read-out: Suppression Rate (MDSC chemotaxis)
# Procedure: Hepa1-6 mouse hepatocellular carcinoma cells were uniformly seeded into 6-well plates. After cells reached confluence, supernatant was aspirated, and 1-1.5 mL fresh medium was added to each well. Following 24 h culture, supernatant was collected, centrifuged at 1600 rpm for 5 min, aspirated, and filtered through a 0.22 μm membrane to obtain tumor-conditioned medium for subsequent use. […] Under sterile conditions, remove the tibia, cut both ends of the bone, and aspirate the bone marrow into a 1 mL syringe. Repeat flushing into a 15 mL centrifuge tube. Centrifuge at 1600 rpm for 5 min to collect bone marrow cells. Wash twice with 1×PBS. […] Count cells, adjust density to 1×10^6 cells/mL, and uniformly seed into 24-well plates at 300 μL per well. […] Centrifuge at 1600 rpm for 5 min, remove supernatant, resuspend cells in 300 μL fresh medium, and place into Transwell chambers. […] Co-culture for 24 h.
# rat arthritis = conditions: in vivo; cited from earlier work
# [3] = Safety evaluation, mouse activity status (30 days oral); assay type: in vivo, C57BL/6 mice; conditions: 500, 1000 mg/kg oral
# Excerpt: (§1) The Normal group received an equal volume of solvent (saline).
# [4] = Safety evaluation, mouse survival rate (30 days oral); assay type: in vivo, C57BL/6 mice; conditions: for survival at 720 h: mouse, in vivo, female, oral
# Excerpt: as §1
# [5] = Safety evaluation, mouse body weight (30 days oral); assay type: in vivo, C57BL/6 mice; set-up: Mouse body weight: unit not given here; conditions: for Mouse body weight: oral gavage once daily
# Excerpt: as §1
# serum TC and TG = assay: HFD-induced atherosclerosis, serum total cholesterol and triglyceride; assay type: in vivo, APOE−/− mice; set-up: Serum TC / Serum TG: unit not given here; conditions: for Serum TC / Serum TG: 8 weeks
# Procedure: Experimental animals: C57BL and APOE^−/− mice, male, 8 weeks old, purchased from GemPharmatech LLC. Production license number: SCXK(Su)2023-0009. […] They were acclimated for 7 days before use in experiments.
# Normal group (C57BL), model group (HFD/APOE^−/−), positive control drug VTX3232 (10 mg/kg) group, compound 103 (0.3, 1, 3, 10 and 30 mg/kg) group, with 6 mice per group. Oral administration was performed continuously for 8 weeks.
# Allow blood to stand at room temperature for 2 hours, then centrifuge at 3000 rpm for 20 minutes. Aspirate the serum, aliquot it, and store at −70° C. for future use. After blood collection, euthanize mice by cervical dislocation. Open the abdominal cavity, remove heart and aorta. […] Store remaining tissues at −80° C. for future use.
# Serum Total Cholesterol (TC) and Triglyceride (TG) Assay: For each sample, 10 μL of serum was used for […]. Samples were added sequentially strictly according to the kit instructions, incubated at 37° C., and measured for absorbance values using an enzyme-linked immunosorbent assay (ELISA) reader. The concentration levels of each indicator were calculated based on the standard curve.
# [6] = test system: serum creatinine and blood urea nitrogen; assay: Diabetic nephropathy (STZ/HFD), serum creatinine and BUN; assay type: in vivo, C57/BL6J mice; conditions: 8 weeks
# Procedure: Experimental animals: C57/BL6J mice, male, 12 weeks old, purchased from GemPharmatech LLC. Production license number: SCXK(Su)2023-0009. […] Animals were acclimated for 7 days before use in experiments.
# Administer streptozotocin (STZ, 50 mg/kg) via intraperitoneal injection for 5 consecutive days. After 72 hours, select mice with fasting blood glucose levels exceeding 16.7 mmol/L as model mice. […] Model mice were fed a high-fat diet (HFD) providing 60% of energy from fat for 8 weeks. After 8 weeks, gavage administration commenced.
# Specimen Collection: One hour after the last drug administration, enucleate the eyeball to collect blood. Allow blood to stand at room temperature for 2 hours, then centrifuge at 3000 rpm for 20 minutes. Aspirate the serum, aliquot it, and store at −70° C. for future use. After blood collection, euthanize the mice by cervical dislocation. Open the abdominal cavity, remove the kidneys, and dissect away the perirenal fat and capsule. Store the tissue at −70° C. for future use.
# Serum Creatinine (Scr) and Blood Urea Nitrogen (BUN) Assay: For each sample, 10 μL of serum was used for creatinine and urea level detection. Samples were added sequentially strictly following the kit instructions. After incubation at 37° C., absorbance values were measured using an enzyme-linked immunosorbent assay (ELISA) reader. The concentration levels of each indicator were calculated based on the standard curve.
smiles,measurement,setting,value
"C=C1C(=O)O[C@@H]2[C@H]3C(C)=CC[C@@]34O[C@@]4(C)CC[C@@H]12 [Arg, Arglabin, reference compound]",IC50 for inhibiting H-Ras protein farnesylation,[1],only at the micromolar level
same,cardiac inflammation,heart failure,inhibited
same,degradation rate in gastric fluid,[2],50%
same,inhibition at 1 µM,MDSCs,42.5%
same,inhibition at 10 µM,MDSCs,73.2%
same,joint swelling,rat arthritis,significantly suppressed
same,"serum levels of TNF-α, IL-1β, and IL-6",rat arthritis,lowered
CN(C)C[C@@H]1C(=O)O[C@H]2[C@H]1CC[C@@]1(C)C[C@]13CC[C@@](C)(O)[C@H]23 [Compound 20],activity status after each administration,[3],relatively reduced activity and lethargy
same,time to recovery to normal activity,[3],1 to 2 h
same,"coat luster, behavioral activity, or mental state vs. Normal group",[3]; 30 days,no significant differences
same,survival rate,[4]; 500 and 1000 mg/kg oral,no significant effect
same,survival at 720 h,[4]; 500 mg/kg,100%
same,survival at 720 h,[4]; 1000 mg/kg,100%
same,body weight,"[5]; 500, 1000 mg/kg oral, 30 days, P>0.05",no significant effect
same,Mouse body weight,"[5]; female, 500 mg/kg, day 1",100.00 ± 0.00
same,Mouse body weight,"[5]; female, 500 mg/kg, day 5",100.41 ± 0.43
same,Mouse body weight,"[5]; female, 500 mg/kg, day 10",99.01 ± 1.34
same,Mouse body weight,"[5]; female, 500 mg/kg, day 15",100.03 ± 0.95
same,Mouse body weight,"[5]; female, 500 mg/kg, day 20",100.52 ± 0.74
same,Mouse body weight,"[5]; female, 500 mg/kg, day 25",99.81 ± 1.72
same,Mouse body weight,"[5]; female, 500 mg/kg, day 30",99.79 ± 2.55
same,Mouse body weight,"[5]; female, 1000 mg/kg, day 1",100.00±0.00
same,Mouse body weight,"[5]; female, 1000 mg/kg, day 5",101.96 ± 0.55
same,Mouse body weight,"[5]; female, 1000 mg/kg, day 10",101.80 ± 2.02
same,Mouse body weight,"[5]; female, 1000 mg/kg, day 15",99.77 ± 2.60
same,Mouse body weight,"[5]; female, 1000 mg/kg, day 20",101.04 ± 2.13
same,Mouse body weight,"[5]; female, 1000 mg/kg, day 25",99.06 ± 3.56
same,Mouse body weight,"[5]; female, 1000 mg/kg, day 30",100.67 ± 0.91
same,Mouse body weight,"[5]; male, 500 mg/kg, day 1",100.00 ± 0.00
same,Mouse body weight,"[5]; male, 500 mg/kg, day 5",100.31 ± 0.89
same,Mouse body weight,"[5]; male, 500 mg/kg, day 10",101.51 ± 4.00
same,Mouse body weight,"[5]; male, 500 mg/kg, day 15",99.27 ± 2.11
same,Mouse body weight,"[5]; male, 500 mg/kg, day 20",101.29 ± 0.40
same,Mouse body weight,"[5]; male, 500 mg/kg, day 25",98.93 ± 0.60
same,Mouse body weight,"[5]; male, 500 mg/kg, day 30",100.10 ± 1.08
same,Mouse body weight,"[5]; male, 1000 mg/kg, day 1",100.00 ± 0.00
same,Mouse body weight,"[5]; male, 1000 mg/kg, day 5",101.48 ± 1.30
same,Mouse body weight,"[5]; male, 1000 mg/kg, day 10",101.22 ± 0.84
same,Mouse body weight,"[5]; male, 1000 mg/kg, day 15",100.47 ± 1.28
same,Mouse body weight,"[5]; male, 1000 mg/kg, day 20",100.15 ± 2.76
same,Mouse body weight,"[5]; male, 1000 mg/kg, day 25",98.35 ± 1.14
same,Mouse body weight,"[5]; male, 1000 mg/kg, day 30",100.71 ± 0.53
CC1=C2CC[C@@](C)(OC(=O)N3CCCC3)[C@@H]2[C@H]2OC(=O)[C@@H](CN3CCCC3)[C@@H]2CC1 [Compound 103],Serum TC,"serum TC and TG; 0.3 mg/kg, oral",18.86 ± 1.44
same,Serum TG,"serum TC and TG; 0.3 mg/kg, oral",2.69 ± 0.86
same,Serum TC,"serum TC and TG; 1 mg/kg, oral",18.71 ± 1.45
same,Serum TG,"serum TC and TG; 1 mg/kg, oral",2.87 ± 0.42
same,Serum TC,"serum TC and TG; 3 mg/kg, oral",17.44 ± 1.83
same,Serum TG,"serum TC and TG; 3 mg/kg, oral",2.56 ± 0.93
same,Serum TC,"serum TC and TG; 10 mg/kg, oral",17.75 ± 1.62
same,Serum TG,"serum TC and TG; 10 mg/kg, oral",3.01 ± 0.89
same,Serum TC,serum TC and TG; 30 mg/kg oral,17.65 ± 1.35
same,Serum TG,serum TC and TG; 30 mg/kg oral,2.91 ± 0.59
same,serum TC and TG levels compared with the model group,"serum TC and TG; 0.3, 1, 3, 10, 30 mg/kg oral",no significant changes
same,BUN,[6]; 1 mg/kg gavage,54.34 ± 10.67
same,Scr (serum creatinine),[6]; 1 mg/kg gavage,23.48 ± 6.73
same,BUN,[6]; 10 mg/kg gavage,38.10 ± 2.88
same,Scr (serum creatinine),[6]; 10 mg/kg gavage,14.90 ± 8.06
